Data as given in ChEMBL document CHEMBL3396984, “Structure-activity relationship study of diphenylamine-based estrogen receptor (ER) antagonists” (Bioorg Med Chem, 2015).
Active and inactive are the calls of the source. The calls are words filed in the database; no cut-off is given here.

Tests used:
MCF7 [1] = experiment: Antiproliferative activity against human MCF7 cells after 5 days by WST-8 assay; format: functional, cell-based
MCF7 [2] = experiment: Estrogenic activity in human MCF7 cells; format: functional, cell-based
MCF7 [3] = experiment: Ratio of tamoxifen IC50 to compound IC50 for human MCF7 cells; format: functional
[4] = Homo sapiens, MCF7, 120 h, read-out: IC50

| Structure (SMILES) | Activity (MCF7 [1]) | IC50 (MCF7 [1]; [4]) | Activity (MCF7 [2]) | IC50 (MCF7 [1]; mcf7) | Ratio IC50 (MCF7 [3]) |
| --- | --- | --- | --- | --- | --- |
| CN(C)CCOc1ccc(N(Cc2ccccc2)c2ccc(O)cc2)cc1 | Dose-dependent effect | 4400 nM | inactive |  |  |
| CCCCCCN(c1ccc(O)cc1)c1ccc(OCCCN(C)C)cc1 | Dose-dependent effect |  | inactive | Not Active |  |
| CN(C)CCCOc1ccc(N(Cc2ccccc2)c2ccc(O)cc2)cc1 | Dose-dependent effect | 2800 nM | inactive |  |  |
| CCCCCCN(c1ccc(O)cc1)c1ccc(OCCN2CCCC2)cc1 | Dose-dependent effect | 2700 nM | inactive |  |  |
| CC/C(=C(\c1ccccc1)c1ccc(OCCN(C)C)cc1)c1ccccc1 [TAMOXIFEN] | Dose-dependent effect | 2100 nM |  |  |  |
| CCCCCCN(c1ccc(O)cc1)c1ccc(OCCN(CC)CC)cc1 | Dose-dependent effect | 1400 nM | inactive |  |  |
| Oc1ccc(N(Cc2ccccc2)c2ccc(OCCN3CCCC3)cc2)cc1 | Dose-dependent effect | 1300 nM | inactive |  |  |
| O=S(=O)(c1ccccc1)N(c1ccc(O)cc1)c1ccc(OCCN2CCCC2)cc1 | Dose-dependent effect | 500 nM | inactive |  |  |
| CCCCCCN(c1ccc(O)cc1)c1ccc(OCCN2CCCCCC2)cc1 | Dose-dependent effect | 1400 nM | inactive |  |  |
| Oc1ccc(N(Cc2ccccc2)c2ccc(OCCN3CCCCC3)cc2)cc1 | Dose-dependent effect | 800 nM | inactive |  |  |
| CN(C)CCOc1ccc(N(c2ccc(O)cc2)S(=O)(=O)c2ccccc2)cc1 | Dose-dependent effect | 9300 nM | inactive |  |  |
| Oc1ccc(N(Cc2ccccc2)c2ccc(OCCN3CCCCCC3)cc2)cc1 | Dose-dependent effect | 660 nM | inactive |  |  |
| CCN(CC)CCOc1ccc(N(Cc2ccccc2)c2ccc(O)cc2)cc1 | Dose-dependent effect | 1900 nM | inactive |  |  |
| CCCCCCN(c1ccc(O)cc1)c1ccc(OCCN(C)C)cc1 | Dose-dependent effect | 2400 nM | inactive |  |  |
| CCN(CC)CCOc1ccc(N(c2ccc(O)cc2)S(=O)(=O)c2ccccc2)cc1 | Dose-dependent effect | 1300 nM | inactive |  |  |
| CN(C)CCCOc1ccc(N(c2ccc(O)cc2)S(=O)(=O)c2ccccc2)cc1 | Dose-dependent effect | 2200 nM | inactive |  |  |
| CCCCCCN(c1ccc(O)cc1)c1ccc(OCCN2CCCCC2)cc1 | Dose-dependent effect | 130 nM | inactive |  | 10 |
| CCC(=C(c1ccc(O)cc1)c1ccc(OCCN(C)C)cc1)c1ccccc1 | Dose-dependent effect | 8900 nM |  |  |  |
| O=S(=O)(c1ccccc1)N(c1ccc(O)cc1)c1ccc(OCCN2CCCCC2)cc1 | Dose-dependent effect | 320 nM | inactive |  |  |
